Tests used:
[1] = Acute Toxicity (7-day, single application per os); details: in vivo, po, single application p.o., NMRI mouse on an empty stomach
Experimental: The acute 7-day toxicity is determined after a single application per os on the white NMRI mouse, on an empty stomach, and the LD50 values are calculated by means of electronic data processing through a probit analysis.

[2] = Rotating rod test (muscular coordination impairing activity); details: mouse, in vivo, po
Experimental: The ability of muscular coordination is determined in the mouse by the rotating rod test according to Blum (1973).
For this test, only male NMRI mice are used, which can support themselves for five minutes on a rotating rod with a diameter of 4 cm at a rotational speed of 12 rotations per minute.
The test substances are administered orally to the animals one hour before the commencement of the test in the form of a 2% suspension in tylose solution. The animals are each placed twice for a period of 60 seconds onto the rotating rod. Animals which cannot support themselves on the rotating rod for a total of 110 seconds are regarded as having impaired muscular coordination. The dose which brings about an impairment in 50% of the animals is regarded as the ED50.
(§1) In columns 5 and 6 of the Table, the quotients which result from dividing the doses impairing muscular coordination or muscle tone by the anxiolytically effective doses are indicated.

[3] = Traction test (muscle relaxant activity / disturbance of muscle tone); details: mouse, in vivo, po
Experimental: In this test the influence of the test substances on the muscle tone is evaluated. The test substance is administered orally to mice. After 120 minutes the mice are suspended by their front paws on a thin, horizontally taut wire. The dose at which exactly half the animals fail to also grasp the wire with their hind paws within 5 seconds is regarded as the ED50.
as §1

| Structure (SMILES) | LD50 at 168 h [1] [mg/kg] | selectivity ratio [2] | selectivity ratio [3] |
| --- | --- | --- | --- |
| CN1c2ccc(Br)cc2C(c2ccccc2Cl)=NCC1CO (stereo not drawn) | > 1470 | 1.3 | 38.8 |
| COCC1CN=C(c2ccccc2Cl)c2cc(Br)ccc2N1 (stereo not drawn) [Ex 2, 7-Bromo-2-methoxymethyl-5-(2-chlorophenyl)-1H-2,3-dihydro-1,4-benzodiazepin] | 1330 | 5.38 | 54.2 |
| OCC1CN=C(c2ccccc2Cl)c2cc(Br)ccc2N1 (stereo not drawn) [Ex 4, 7-Bromo-2-hydroxymethyl-5-(2-chlorophenyl)-1H-2,3-dihydro-1,4-benzodiazepine] | > 1370 | 8.6 | 164 |
| COCC1CN=C(c2ccccc2Cl)c2cc(Br)ccc2N1C (stereo not drawn) | > 1470 | 1.11 | 7.38 |

Reference: US4505908A, “7-Bromo-5-(2-halophenyl)-1H-2,3-dihydro-1,4-benzodiazepine pharmaceuticals” (priority 1981, dated 1985)
